The term GI50 denotes the concentration that inhibits growth by half. The term TGI denotes the concentration giving total growth inhibition. Low readings indicate more potent growth arrest, high ones less potent growth arrest.

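Grown in 96-well plates, cells were treated for 48 hours with each compound at five concentrations. Insufficient inhibition: endpoint recorded as highest concentration tested. Here, GI50 denotes the concentration required for 50% inhibition of growth. TGI marks complete inhibition of growth.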

Some test systems named below: OVCAR-4 ovarian; UACC-257 melanoma; 786-0 renal; NCI/ADR-RES ovarian; OVCAR-8 ovarian; K-562 leukemia; TK-10 renal; U251 CNS; NCI-H460 lung; SF-539 CNS.
Holding throughout (assay): DTP human tumour cell line panel, 48 h

For `N/C(=N/N=C/c1ccccc1)N/N=C\c1ccccc1`, the GI50 is 19.6 µM in the experiment on OVCAR-4 ovarian; 7.5 µM in the experiment on UACC-257 melanoma; 5.2 µM with 786-0 renal; 3.26 µM in the experiment on NCI/ADR-RES ovarian; 6.69 µM with OVCAR-8 ovarian; 3.35 µM in the experiment with K-562 leukemia. The GI50 in the experiment with TK-10 renal was 10.7 µM; in the experiment on U251 CNS it was 5.08 µM; with NCI-H460 lung, 3.89 µM. For the same molecule, the TGI is more than 100 µM with OVCAR-4 ovarian; 27.6 µM in the experiment on UACC-257 melanoma; 43.9 µM with 786-0 renal; more than 100 µM in the experiment with NCI/ADR-RES ovarian; more than 100 µM in the experiment on OVCAR-8 ovarian; more than 100 µM with K-562 leukemia. Moreover, the TGI with TK-10 renal was more than 100 µM; in the experiment on U251 CNS, 70.9 µM; with NCI-H460 lung it was more than 100 µM.

Consider `CC(=O)Nc1c(I)c(NC(C)=O)c(I)c(C(=O)O)c1I`, for which the GI50 in the experiment on OVCAR-4 ovarian, in the experiment on UACC-257 melanoma, with 786-0 renal, in the experiment with NCI/ADR-RES ovarian, with OVCAR-8 ovarian and with K-562 leukemia was more than 100 µM in each case. Further, the GI50 with TK-10 renal and in the experiment with NCI-H460 lung was more than 100 µM throughout. The TGI in the experiment with OVCAR-4 ovarian, in the experiment on UACC-257 melanoma, in the experiment with 786-0 renal, in the experiment with NCI/ADR-RES ovarian, with OVCAR-8 ovarian and in the experiment on K-562 leukemia was more than 100 µM each time. Further, the TGI in the experiment on TK-10 renal and in the experiment with NCI-H460 lung was more than 100 µM each time.

Regarding `O=C(OC1CCC2OOC1O2)c1ccc([N+](=O)[O-])cc1` (stereo unspecified), the TGI in the experiment with OVCAR-4 ovarian, in the experiment with UACC-257 melanoma, in the experiment on 786-0 renal, in the experiment with OVCAR-8 ovarian, in the experiment on K-562 leukemia and in the experiment on TK-10 renal was more than 100 µM each time. The TGI with U251 CNS, with NCI-H460 lung and with SF-539 CNS was more than 100 µM throughout.

Turning to `N#CCCCCCOCCOCCOCCOCCOCCCCCC#N`, the TGI in the experiment on OVCAR-4 ovarian, in the experiment on UACC-257 melanoma, with 786-0 renal, in the experiment with OVCAR-8 ovarian, in the experiment with K-562 leukemia and with TK-10 renal was more than 100 µM in each case. Moreover, the TGI with U251 CNS and in the experiment on NCI-H460 lung was more than 100 µM in each case.

As for `O=C(NCc1cccnc1)C1COc2cc(-c3cc(=O)c4ccccc4o3)ccc2O1` (stereo unspecified), the TGI with OVCAR-4 ovarian is more than 100 µM; in the experiment with UACC-257 melanoma, more than 100 µM; with 786-0 renal, more than 81.7 µM; in the experiment with OVCAR-8 ovarian, more than 55 µM; in the experiment with K-562 leukemia, more than 100 µM; in the experiment with TK-10 renal, more than 83.4 µM. In addition, the TGI in the experiment with U251 CNS was more than 100 µM; in the experiment on NCI-H460 lung it was more than 100 µM; with SF-539 CNS, 16.4 µM.

Turning to `CC1(Br)CC2OC3(Br)C=CC(C)(O)C2(CC1=O)C3(C)C` (stereo unspecified), the TGI with OVCAR-4 ovarian was more than 100 µM; with UACC-257 melanoma, more than 100 µM; in the experiment with 786-0 renal, more than 100 µM; in the experiment with OVCAR-8 ovarian, more than 100 µM; in the experiment on K-562 leukemia it was more than 29.8 µM; in the experiment with TK-10 renal, more than 100 µM. Further, the TGI in the experiment with U251 CNS, in the experiment with NCI-H460 lung and in the experiment with SF-539 CNS was more than 100 µM throughout.

In the case of `CC[C@@]1(O)C(=O)OCc2c1cc1n(c2=O)Cc2cc3cccc([N+](=O)[O-])c3nc2-1`, the GI50 in the experiment on OVCAR-4 ovarian was 4.04 µM; in the experiment with UACC-257 melanoma, 2.81 µM; with 786-0 renal, 0.3 µM; in the experiment on OVCAR-8 ovarian it was 0.857 µM; with K-562 leukemia it was 3.55 µM; in the experiment on TK-10 renal, 21 µM. The figures for the GI50 in the experiment with U251 CNS, with NCI-H460 lung and with SF-539 CNS were 0.312 µM, 0.0671 µM and 0.478 µM, respectively. Besides, the TGI with OVCAR-4 ovarian is 24.3 µM; in the experiment on UACC-257 melanoma, 36.9 µM; in the experiment on 786-0 renal it was 1.29 µM; in the experiment on OVCAR-8 ovarian, more than 100 µM; in the experiment with K-562 leukemia, more than 100 µM; with TK-10 renal, more than 100 µM. The TGI in the experiment with U251 CNS came out at 3.07 µM; with NCI-H460 lung it was 1.51 µM; in the experiment with SF-539 CNS, 2.89 µM.

Regarding `Cc1ccc(NC(=O)c2cc3ccccc3c(N=Nc3cc(S(=O)(=O)O)ccc3O)c2O)c(C)c1`, the TGI in the experiment with OVCAR-4 ovarian, with UACC-257 melanoma, with 786-0 renal, with NCI/ADR-RES ovarian, in the experiment on OVCAR-8 ovarian and in the experiment on K-562 leukemia was more than 100 µM throughout. The TGI with TK-10 renal and with U251 CNS was more than 100 µM in each case.

Turning to `NC1CCCCC1N.O=[Se]([O-])[O-].[Pt+4]` (stereo unspecified), the GI50 was 2.63 µM with OVCAR-4 ovarian; 2.18 µM with UACC-257 melanoma; 0.0552 µM with 786-0 renal; 0.922 µM in the experiment on OVCAR-8 ovarian; 0.413 µM in the experiment with K-562 leukemia; 28.4 µM in the experiment with TK-10 renal. Further, the values for the GI50 with U251 CNS, in the experiment on NCI-H460 lung and in the experiment on SF-539 CNS were 0.666 µM, 0.205 µM and 1.18 µM, respectively. Also, the TGI was more than 100 µM in the experiment on OVCAR-4 ovarian; more than 64.8 µM in the experiment on UACC-257 melanoma; 20.3 µM in the experiment on 786-0 renal; more than 100 µM in the experiment with OVCAR-8 ovarian; more than 49.8 µM with K-562 leukemia; more than 100 µM in the experiment with TK-10 renal. The TGI in the experiment on U251 CNS is 15.7 µM; in the experiment with NCI-H460 lung, 5.15 µM; in the experiment with SF-539 CNS, 20.6 µM.

Regarding `COc1ccc(Sc2nc3cc(N)cc(N)c3nc2-c2ccccc2)cc1`, the GI50 is 43.2 µM in the experiment on UACC-257 melanoma; 52.3 µM with 786-0 renal; more than 100 µM in the experiment on NCI/ADR-RES ovarian; more than 100 µM in the experiment on OVCAR-8 ovarian; 9.83 µM with K-562 leukemia; 30.6 µM in the experiment on TK-10 renal. The figures for the GI50 in the experiment on U251 CNS, with NCI-H460 lung and with SF-539 CNS were more than 100 µM, 20 µM and 10 µM, respectively. The TGI in the experiment with UACC-257 melanoma, with 786-0 renal, in the experiment with NCI/ADR-RES ovarian, with OVCAR-8 ovarian, in the experiment with K-562 leukemia and in the experiment on TK-10 renal was more than 100 µM each time. For the same molecule, the TGI with U251 CNS, with NCI-H460 lung and in the experiment with SF-539 CNS was more than 100 µM each time.

The record behind these values is PubChem BioAssay (NCI).
